Experimental data from PMC4811417, “Sulforaphane Suppresses Hepatitis C Virus Replication by Up-Regulating Heme Oxygenase-1 Expression through PI3K/Nrf2 Pathway” (PLoS ONE, 2016).
Where two headings read alike, the source gives them in different places.

Assays:
[1] = system: JFH-1 virus particle-infected Huh-7 cells; assay: Combination of SFN with antiviral drugs in HCV-infected cells (CalcuSyn2, Chou and Talalay); type: cell-based, Hepatitis C virus; settings: JFH-1-infected Huh-7 cells; for CI values at ED75 / CI values at ED90: fixed ratio, 3 days
Description: (§1) The anti-HCV activities of the different combinations were determined by qRT-PCR. The drug combination data were analyzed using CalcuSyn2™ software (Biosoft, Cambridge, UK) based on the method by Chou and Talalay. The multiple drug dose effects and combination index (CI) values were evaluated and presented as antagonism (CI > 1), additivity (CI = 1) or synergism (CI < 1).

[2] = system: HCV subgenomic replicon in Ava5 cells; assay: Combination of SFN with antiviral drugs in replicon cells (CalcuSyn2, Chou and Talalay); type: cell-based, Hepatitis C virus; settings: for CI values at ED75 / CI values at ED90: fixed ratio, 3 days
Description: as §1

[3] = system: HCV JFH-1 (genotype 2a) in Huh-7 cells; settings: JFH-1-infected Huh-7 cells, 3 days
Description: HCV infectious particles (JFH-1; genotype 2a) were produced as previously described. HCV infection assay was used to determine the antiviral effect of SFN. Huh-7 cells were seeded in 24-well plates at a density of 5 × 10^4 cells per well and were infected with HCV for 6 h at a multiplicity of infection (MOI) of 0.1. The HCV-infected cells were treated with different concentrations (0–10μM) of SFN and incubated for 3 days, following which total RNA samples were extracted and subjected to qRT-PCR analysis for the quantification of HCV replication.

Nrf2/ARE = assay: ARE transactivation and Nrf2 expression in Ava5 cells (p3xARE-Luc, Western blotting)
[4] = system: IFN response (IFN-α, ISRE, OAS1, OAS2, OAS3, PKR)
Description: (§2) Total cellular RNA extracted from cultured cells was purified using the Total RNA Miniprep Purification Kit (GMbiolab Co., Ltd, Taiwan). RNA samples were reverse transcribed into complementary DNA using the M-MLV Reverse Transcription System (Promega). Quantitative real-time polymerase chain reaction (qRT-PCR) was performed to assess the relative levels of gene expression using the ABI Step One Real-Time PCR-System (ABI Warrington, UK). Glyceraldehydes-3-phosphate dehydrogenase (gapdh) gene expression was used as the endogenous control for normalization in all qRT-PCR analyses. Relative expression was calculated using the comparative Ct method. Absolute quantitation of HCV RNA copies was calculated and determined relative to standard curves comprised of serial dilution of expression plasmids containing the coding sequence of HCV NS5B using RT-qPCR. The primer sequences primers for qRT-PCR were used as previously described (Table 1).

bilirubin / BVR = settings: Ava5 cells, 3 days
Description: Intracellular bilirubin level was quantified as previously described [24]. Cells were seeded in 6-well plates at a density of 4 × 10^5 cells per well and treated with SFN at indicated concentrations for 3 days. Cell lysates were harvested and the amount of bilirubin was quantified using Calibrator for Automated Systems (c.f.a.s) (Roche Diagnostics Ltd., South San Francisco, CA, USA) and MeDiPro direct bilirubin test kit (Formosa Biomedical Technology Corp., Taipei, Taiwan). The absorbance values at 546 and 660 nm were measured using the Epoch microplate spectrophotometer (BioTek Instruments, Inc., Winooski, VT, USA).
The parental Huh-7 cells were used to determine basal bilirubin levels. […] Ava5 cells were treated with the indicated concentrations of SFN for 3 days. The expression of BVR was analyzed by qRT-PCR and Western blotting using specific primers and antibodies for BVR and GAPDH, respectively. GAPDH expression was used as protein loading control.

HCV NS3/4A protease = HCV NS3/4A protease (Hepatitis C virus genotype 1b, UniProt Q9WMX2); settings: Huh-7 cells, 0–10 μM, 3 days, compared to untreated controls; restored with SnPP
Chain of HCV NS3/4A protease (Q9WMX2 1027-1657): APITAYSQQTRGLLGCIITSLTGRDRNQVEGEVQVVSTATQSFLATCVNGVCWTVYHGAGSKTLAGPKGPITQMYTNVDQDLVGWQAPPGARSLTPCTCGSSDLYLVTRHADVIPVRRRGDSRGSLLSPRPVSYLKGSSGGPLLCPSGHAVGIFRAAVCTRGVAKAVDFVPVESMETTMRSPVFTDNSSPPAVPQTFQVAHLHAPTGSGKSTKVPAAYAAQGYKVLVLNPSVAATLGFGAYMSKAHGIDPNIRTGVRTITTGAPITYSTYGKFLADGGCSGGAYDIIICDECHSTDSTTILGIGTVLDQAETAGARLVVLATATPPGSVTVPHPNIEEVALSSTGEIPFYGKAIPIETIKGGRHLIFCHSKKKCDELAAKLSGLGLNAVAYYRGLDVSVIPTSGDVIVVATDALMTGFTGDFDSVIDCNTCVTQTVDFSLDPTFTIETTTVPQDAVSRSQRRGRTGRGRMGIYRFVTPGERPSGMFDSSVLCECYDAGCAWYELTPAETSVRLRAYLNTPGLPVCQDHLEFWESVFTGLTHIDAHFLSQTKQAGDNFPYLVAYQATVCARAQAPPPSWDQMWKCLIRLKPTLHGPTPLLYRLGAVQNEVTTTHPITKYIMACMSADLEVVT
Chain of HCV NS3/4A protease (Q9WMX2 1658-1711): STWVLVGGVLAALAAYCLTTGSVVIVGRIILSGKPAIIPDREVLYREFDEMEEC
Description: The supernatants were harvested for measurement of SEAP activity by Phospha-Light assay kit (Tropix, Bedford, UK).
The culture supernatants were harvested and the SEAP activity was analyzed by Phospha-Light assay kit. Telaprevir (1 μM) and biliverdin (100 μM) served as positive controls for anti-HCV protease activity. The relative SEAP activities were presented as fold changes compared to untreated cells, in which as the activity was considered to be 1.

[5] = system: HCV subgenomic replicon (genotype 1b) in Ava5 cells; assay: Anti-HCV activity in HCV replicon (Ava5) cells, qRT-PCR / Western blotting; type: cell-based, Hepatitis C virus; settings: for Selective Index (SI): CC50/EC50, Ava5 cells; for EC50: read-out: Anti-HCV activity (EC50)
Description: Huh-7, Huh7.5, Ava5 (harboring HCV subgenomic replicon; genotype 1b) and Huh7.5/J6/JFHEMCVIRESRlucNeo cells (harboring HCV subgenomic replicon RNA and renilla luciferase reporter gene; genotype 2a) obtained from Apath, LLC (St. Louis, MO) were routinely passaged in Dulbecco’s modified Eagle’s medium containing 10% heat-inactivated fetal bovine serum, 1% nonessential amino acids, and 1% antibiotic-antimycotic in a 37°C incubator with a humidified atmosphere containing 5% CO2. Sulforaphane (SFN), phenethyl isothiocyanate, benzyl isothiocyanate, benzyl isothiocyanate, butyl isothiocyanate, allyl isothiocyanate, and HO-1-specific inhibitor (tin protoporphyrin IX dichloride; SnPP) were obtained from Sigma Aldrich Co. (St. Louis, MO, USA). Biliverdin was obtained from MP Biomedicals, Inc (Santa Ana, CA, USA). […] Daclatasvir and telaprevir were obtained from Legend Stat International Co., Ltd (Omdurman, Sudan). Sofosbuvir was obtained from Shanghai Haoyuan Chemexpress Co., Ltd. (Shanghai, China). These compounds were stored at a concentration of 10 mM in 100% dimethyl sulfoxide (DMSO) at 4°C until use. All the reactions were performed using a final concentration of 0.1% DMSO.
as §2
(§3) Western blotting was performed as previously described. Proteins from cell lysates were separated using SDS-PAGE and transferred onto PVDF membranes. The membranes were blocked with 5% nonfat milk in phosphate-buffered saline containing Tween 20 (PBST) and incubated overnight at 4°C with primary antibodies against GAPDH (1:10,000; GeneTex, CA, USA), NS5B (1:5,000; Abcam, Cambridge, MA, USA), Nrf2 (1:3,000; GeneTex), HO-1 (1:3,000; GeneTex), biliverdin reductase A (BVRA), Keap1 and Bach1 (1:1,000; Abcam), and total-phohphoinositide 3-kinase (PI3K) or phosphor-PI3K (1:1000; Cell Signaling Technology, Inc., Beverly, MA, USA). The immunoreactive blot signals were detected using the enhanced chemiluminescence Western blotting reagent (Perkin-Elmer, CT, USA).
To investigate the anti-HCV activity of SFN and its analogs (Fig 1A), Huh-7-derived Ava5 cells that harbor an HCV subgenomic RNA replicon were treated with increasing concentrations of SFN for 3 days. The anti-HCV activity and cytotoxicity of SFN and its analogs were analyzed by qRT-PCR and MTS assay, respectively. […] Moreover, the anti-HCV replication activity of SFN was analyzed by Western blotting and qRT-PCR.

[6] = Cell viability / cytotoxicity, MTS assay; type: cell-based; settings: human; Ava5 cells, MTS assay; read-out: Cyto-Toxicity (CC50)
Excerpt: (§4) The CellTiter 96 Aqueous One Solution Cell Proliferation assay system (Promega, Madison, WI, USA), which is a colorimetric approach for the detection of the cytotoxic effect of a compound, was used to measure cell viability according to the manufacturer’s protocol. […] The absorbance values were detected at 490 nm using a 96-well plate reader (Bio-Rad, Hertfordshire, UK).

Ava5 cells = assay: Cell viability / cytotoxicity, MTS assay; type: cell-based; settings: at doses where viral replication was inhibited
Excerpt: as §4

PI3K = settings: Ava5 cells, 7.5 μM SFN, 15 min after treatment
Description: as §3

HO-1 = settings: Ava5 cells, 0–10 μM, 3 days
Description: as §2
Western blotting was performed as previously described. Proteins from cell lysates were separated using SDS-PAGE and transferred onto PVDF membranes. […] The immunoreactive blot signals were detected using the enhanced chemiluminescence Western blotting reagent (Perkin-Elmer, CT, USA).

[7] = rats, oral dosing of 50 μmol of SFN, cited from earlier work
[8] = system: HCV JFH-1 in Huh7.5 cells
Description: The effect of SFN on HCV entry was determined according to previously described methods [22]. Briefly, Huh7.5 cells were infected with JFH-1 and treated with SFN for 1 hour at 37°C (endocytosis/fusion period). Finally, cells were washed and incubated in complete culture medium at 37°C for 45 hours. Subsequently, the cells were collected to quantify intracellular HCV RNA copy numbers. The effect of SFN on assembly and secretion were determined according to previously described methods [23]. The Huh7.5 cells were infected with JFH-1 and treated with indicated concentration of SFN. The viral supernatants and cell pellets were collected at 3 days postinfection for virus titration by qRT-PCR.
(A) Huh7.5 cells were infected with JFH-1 and treated with SFN for 1 hr at 37°C and then the infectecells were washed and incubated in complete culture medium. The intracellular HCV RNA copy numbers were quantified by qRT-PCR. The treatment of heparin served as positive control for the inhibition of HCV entry. The relative HCV entry were presented as percentage changes compared to the SFN-untreated cells, which were considered as 100%. (B) Huh7.5 cells were infected with JFH-1 and then treated with SFN for 72 hrs. The supernatant and cell lysate were collected and the HCV RNA copy numbers were quantified by qRT-PCR.

[9] = Hepatitis C virus, 72 h, Ava5 cells, 3 days, HCV RNA levels by qRT-PCR

Structure (SMILES): CC(C)OC(=O)[C@H](C)N[P@](=O)(OC[C@H]1O[C@@H](n2ccc(=O)[nH]c2=O)[C@](C)(F)[C@@H]1O)Oc1ccccc1 [Sofobuvir, sofosbuvir]
- Influence [1]: Synergistic
- CI values at ED75 [1]: 0.5
- CI values at ED90 [1]: 0.4
- Influence [2]: Synergistic
- CI values at ED75 [2]: 0.5
- CI values at ED90 [2]: 0.4

Structure (SMILES): C[S+]([O-])CCCCN=C=S (stereo not shown) [Sulforaphane]
- antiviral activity in the HCV JFH-1 infection system [3]: exhibited antiviral activity
- protein levels of Keap1 and Bach1 (Nrf2/ARE; Ava5 cells): did not observe significant changes
- expression of Nrf2 in cytoplasmic and nuclear fractions (Nrf2/ARE; Ava5 cells, concentration-dependent): significant increase
- ARE-mediated luciferase activity (Nrf2/ARE; p3xARE-Luc-transfected Ava5 cells, 3 days, effective antiviral concentrations): significantly increased
- IFN-α2 and IFN-α17 expression ([4]; Ava5 cells, 3 days, qRT-PCR, attenuated with SnPP): significantly induced
- IFN-α levels in culture supernatants ([4]; Ava5 cells, ELISA, effective antiviral concentrations, attenuated by SnPP): significantly increased
- expression of IFN response genes (OAS1, OAS2, OAS3, PKR) ([4]; Ava5 cells, qRT-PCR, attenuated by SnPP): significantly induced
- ISRE-mediated luciferase activity ([4]; pISRE-Luc-transfected Ava5 cells, 3 days, attenuated with SnPP): significant induction
- bilirubin levels (bilirubin / BVR; 0–10 μM): significant increase
- BVR RNA or protein levels (bilirubin / BVR): did not detect any significant changes
- HCV protease activity (SEAP) (HCV NS3/4A protease): significantly decreased
- inhibition of viral replication ([5]; 10 μM SFN, Ava5 cells, 3 days, compared to SFN-untreated cells): 90%
- HCV protein synthesis and RNA replication ([5]; Ava5 cells, 0–10 μM, 3 days, concentration-dependent): significantly reduced
- Selective Index (SI) [5]: ~10
- EC50 ([5]; Hepatitis C virus, Ava5, 72 h): 5 ± 1.5 µM
- IC50 ([5]; Hepatitis C virus, Ava5, HCV replicon cells and infectious system, read-out: IC50 value, suppression of HCV protein and RNA levels): 5.7 ± 0.2 µM
- CC50 at 3 days [6]: 52 ± 3 µM
- cytotoxicity (cell viability by MTS assay) (Ava5 cells): did not induce significant cytotoxicity
- phosphorylation of PI3K (PI3K): significantly induced
- HO-1 RNA and protein levels (HO-1): significantly increased
- plasma concentration ([7]; reached within 4h): around 20 μM
- elimination half-life [7]: 2.2 h
- time at which plasma concentration of SFN occurred [7]: 1 h
- inhibition on viral entry ([8]; Huh7.5 cells infected with JFH-1, SFN 1 hour): no significant inhibition
- inhibition on viral assembly ([8]; Huh7.5 cells infected with JFH-1, SFN 3 days): no significant inhibition

Structure (SMILES): C=CCN=C=S [Allyl isothiocyanate, allyl isothiocyanate]
- Selective Index (SI) [5]: 1.5
- EC50 [5, 9]: 20 ± 2 µM
- CC50 at 3 days [6]: 33 ± 3 µM

Structure (SMILES): S=C=NCCc1ccccc1 [Phenethyl isothiocyanate, phenethyl isothiocyanate]
- EC50 ([5]; Hepatitis C virus, Ava5, 72 h): 2.5 ± 0.5 µM
- CC50 at 3 days [6]: 10 ± 1.5 µM

Structure (SMILES): CCCCN=C=S [Butyl isothiocyanate, butyl isothiocyanate]
- CC50 at 3 days [6]: 95 ± 6 µM

Structure (SMILES): S=C=NCc1ccccc1 [Benzyl isothiocyanate, benzyl isothiocyanate]
- Selective Index (SI) [5]: 3
- EC50 [5, 9]: 20 ± 2 µM
- CC50 at 3 days [6]: 67 ± 2 µM

Structure (SMILES): CCC[C@H](NC(=O)[C@@H]1[C@H]2CCC[C@H]2CN1C(=O)[C@@H](NC(=O)[C@@H](NC(=O)c1cnccn1)C1CCCCC1)C(C)(C)C)C(=O)C(=O)NC1CC1 [Telapriver, telaprevir]
- Influence [1]: Synergistic
- CI values at ED75 [1]: 0.6
- CI values at ED90 [1]: 0.5
- Influence [2]: Synergistic
- CI values at ED75 [2]: 0.7
- CI values at ED90 [2]: 0.6

Structure (SMILES): COC(=O)N[C@H](C(=O)N1CCC[C@H]1c1nc(-c2ccc(-c3ccc(-c4c[nH]c([C@@H]5CCCN5C(=O)[C@@H](NC(=O)OC)C(C)C)n4)cc3)cc2)c[nH]1)C(C)C [Daclatasvir]
- Influence [1]: Synergistic
- CI values at ED75 [1]: 0.5
- CI values at ED90 [1]: 0.4
- Influence [2]: Synergistic
- CI values at ED75 [2]: 0.5
- CI values at ED90 [2]: 0.4
